Source: PubChem BioAssay AID1963825 (Molecular Pharmacology Branch, DTP, NCI, 2024)

Experiment: Anticancer human tumor 997537-175-T-J1-PDC patient-derived colon adenocarcinoma cell line growth inhibition [POLQ]
Details: 997537-175-T-J1-PDC complex spheroid viability, combination with POLQ inhibitors; for IC50: curve of first compound; for viability, T/C: stronger effect = lower value
How it was run: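 Patient-derived tumour cells were co-cultured with HUVEC and mesenchymal stem cells as multicellular spheroids at 37 °C. They were treated with POLQ inhibitors (novobiocin, ART-558, RP6685) alone or combined with other agents. Top concentrations were at or near clinical Cmax (otherwise 10 microM; SN-38 at 1 microM), decreasing in half-log steps.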
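Further: luminescence signal used as a surrogate for viable cells; spheroids exposed to drugs for seven days before readout.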

CC(C)n1c(=O)n(C)c2cnc3cc(F)c(-c4ccc(OCCCN5CCCCC5)nc4)cc3c21 + Cc1cccc(N(C)C(=O)C2C(O)CCN2c2nc(C)cc(C(F)(F)F)c2C#N)c1
IC50 (second compound 0.0316 µM): > 10 µM | IC50 (second compound 0.1 µM): > 10 µM | IC50 (second compound 0.316 µM): > 10 µM | IC50 (second compound 1 µM): > 10 µM | IC50 (second compound 3.16 µM): > 10 µM | IC50 (second compound 10 µM): > 10 µM | viability, T/C (second compound 0.0316 µM, first compound 0.0316 µM): 94.2% | viability, T/C (second compound 0.0316 µM, first compound 0.1 µM): 91.7% | viability, T/C (second compound 0.0316 µM, first compound 0.316 µM): 105% | viability, T/C (second compound 0.0316 µM, first compound 1 µM): 97.5% | viability, T/C (second compound 0.0316 µM, first compound 3.16 µM): 98.7% | viability, T/C (second compound 0.0316 µM, first compound 10 µM): 82.7% | viability, T/C (second compound 0.1 µM, first compound 0.0316 µM): 96.7% | viability, T/C (second compound 0.1 µM, first compound 0.1 µM): 106% | viability, T/C (second compound 0.1 µM, first compound 0.316 µM): 90.8% | viability, T/C (second compound 0.1 µM, first compound 1 µM): 98.6% | viability, T/C (second compound 0.1 µM, first compound 3.16 µM): 103% | viability, T/C (second compound 0.1 µM, first compound 10 µM): 81.3% | viability, T/C (second compound 0.316 µM, first compound 0.0316 µM): 103% | viability, T/C (second compound 0.316 µM, first compound 0.1 µM): 99.9% | viability, T/C (second compound 0.316 µM, first compound 0.316 µM): 105% | viability, T/C (second compound 0.316 µM, first compound 1 µM): 103% | viability, T/C (second compound 0.316 µM, first compound 3.16 µM): 90.2% | viability, T/C (second compound 0.316 µM, first compound 10 µM): 87.7% | viability, T/C (second compound 1 µM, first compound 0.0316 µM): 87.2% | viability, T/C (second compound 1 µM, first compound 0.1 µM): 102% | viability, T/C (second compound 1 µM, first compound 0.316 µM): 92.5% | viability, T/C (second compound 1 µM, first compound 1 µM): 86% | viability, T/C (second compound 1 µM, first compound 3.16 µM): 96.8% | viability, T/C (second compound 1 µM, first compound 10 µM): 91.2% | viability, T/C (second compound 3.16 µM, first compound 0.0316 µM): 87.1% | viability, T/C (second compound 3.16 µM, first compound 0.1 µM): 96.3% | viability, T/C (second compound 3.16 µM, first compound 0.316 µM): 90.2% | viability, T/C (second compound 3.16 µM, first compound 1 µM): 80% | viability, T/C (second compound 3.16 µM, first compound 3.16 µM): 98.8% | viability, T/C (second compound 3.16 µM, first compound 10 µM): 73.6% | viability, T/C (second compound 10 µM, first compound 0.0316 µM): 99.6% | viability, T/C (second compound 10 µM, first compound 0.1 µM): 101% | viability, T/C (second compound 10 µM, first compound 0.316 µM): 86.8% | viability, T/C (second compound 10 µM, first compound 1 µM): 83.8% | viability, T/C (second compound 10 µM, first compound 3.16 µM): 91.8% | viability, T/C (second compound 10 µM, first compound 10 µM): 76.6%
